Measured values as given in patent publication US4572909A, “2-(Secondary aminoalkoxymethyl) dihydropyridine derivatives as anti-ischaemic and antihypertensive agents” (Pfizer Inc., priority 1982, dated 1986).
Counter-ions that a name gives are not always drawn. Like-named read-outs stand apart in the source and are kept apart here.

Test system: rat aorta
Experiment: reduction of calcium-induced contraction (response to calcium chloride) of spirally cut strips of rat aorta in vitro
Format: cell-based
Experimental: The ability of the compounds to inhibit the movement of calcium into the cell is shown by their effectiveness in reducing the response of isolated […] to an increase in calcium ion concentration in vitro. The test is performed by mounting spirally cut strips of rat aorta with one end fixed and the other attached to a force transducer. The tissue is immersed in a bath of physiological saline solution containing potassium ions at a concentration of 45 millimolar and no calcium. Calcium chloride is added to the bath with a pipette to give a final calcium ion concentration of 2 millimolar. The change in tension caused by the resulting contraction of the tissue is noted. The bath is drained and replaced with fresh saline solution and, after 45 minutes, the test is repeated with the particular compound under test present in the saline solution. The concentration of compound required to reduce the response by 50% is recorded.

[1] = 0.75 h; isolated rat aorta strips; 45 millimolar potassium; 2 millimolar calcium; retest after 45 minutes with compound; read-out: molar concentration of the compounds required to reduce the response by 50% (IC50)
[2] = ranking among the tested Examples
[3] = read-out: molar concentration of the compounds required to reduce the response by 50% (IC50); isolated rat aorta strips; 45 millimolar potassium; 2 millimolar calcium; retest after 45 minutes with compound
[4] = isolated rat aorta strips; 45 millimolar potassium; 2 millimolar calcium; retest after 45 minutes with compound; read-out: molar concentration of the compounds required to reduce the response by 50% (IC50)

IC50 [1]	Structure (SMILES)	activity ranking by IC50 (the smaller the concentration the more active the compound) [2]	further results
3.2 nM	CCOC(=O)C1=C(COCCNC)NC(C)=C(C(=O)OC)C1c1ccccc1Cl.O=C(O)C(=O)O (stereo not drawn) [Example 1, 4-(2-chlorophenyl)-2-[2-(methylamino)ethoxymethyl]-3-ethoxycarbonyl-5-methoxycarbonyl-6-methyl-1,4-dihydropyridine, oxalate salt]	most active compounds	–
32 nM	CCOC(=O)C1=C(COCCNC)NC(C)=C(C(=O)OC)C1c1ccccc1 (stereo not drawn) [Example 2]	–	–
20 nM	CCOC(=O)C1=C(COCCNC)NC(C)=C(C(=O)OC)C1c1ccccc1F (stereo not drawn) [Example 3]	–	–
63 nM	CCOC(=O)C1=C(COCCNC)NC(C)=C(C(=O)OC)C1c1ccccc1OC (stereo not drawn) [Example 4]	–	–
40 nM	CCOC(=O)C1=C(COCCNC)NC(C)=C(C(=O)OC)C1c1cccc(Cl)c1 (stereo not drawn) [Example 5]	–	–
200 nM	CCOC(=O)C1=C(COCCNC)NC(C)=C(C(=O)OC)C1c1cccc(O)c1Cl (stereo not drawn) [Example 6]	–	–
13 nM	CCOC(=O)C1=C(COCCNC)NC(C)=C(C(=O)OC)C1c1c(F)cccc1Cl (stereo not drawn) [Example 7]	–	–
50 nM	CCOC(=O)C1=C(COCCNCc2ccccc2)NC(C)=C(C(=O)OC)C1c1ccccc1Cl (stereo not drawn) [Example 8]	–	–
25 nM	CCOC(=O)C1=C(COCCNCCOC)NC(C)=C(C(=O)OC)C1c1ccccc1Cl (stereo not drawn) [Example 10]	–	–
–	CCOC(=O)C1=C(COCCN)NC(C)=C(C(=O)OC)C1c1ccccc1Cl.O=C(O)/C=C\C(=O)O (stereo not drawn) [Example 11, 2-[(2-aminoethoxy)methyl]-4-(2-chlorophenyl)-3-ethoxycarbonyl-5-methoxycarbonyl-6-methyl-1,4-dihydropyridine maleate]	most active compounds	IC50 [3]: 3.2 nM
–	CCOC(=O)C1=C(COCCN)NC(C)=C(C(=O)OC)C1c1ccccc1Cl (stereo not drawn) [Example 12, 2-[2-aminoethoxy)methyl]-4-(2-chlorophenyl)-3-ethoxycarbonyl-5-methoxycarbonyl-6-methyl-1,4-dihydropyridine maleate]	most active compounds	IC50 [4]: 3.2 nM
6.3 nM	CCOC(=O)C1=C(COCCN)NC(C)=C(C(=O)OC)C1c1cccc(Cl)c1Cl (stereo not drawn) [Example 13]	–	–
160 nM	CCOC(=O)C1=C(COCCN)NC(C)=C(C(=O)OC)C1c1ccccc1 (stereo not drawn) [Example 14]	–	–
18 nM	CCOC(=O)C1=C(COCCN)NC(C)=C(C(=O)OC)C1c1ccccc1F (stereo not drawn) [Example 15]	–	–
4 nM	CCOC(=O)C1=C(COCCNCC(N)=O)NC(C)=C(C(=O)OC)C1c1ccccc1Cl (stereo not drawn) [Example 19, 2-(2-{[4-(2-Chlorophenyl)-3-ethoxycarbonyl-5-methoxycarbonyl-6-methyl-1,4-dihydropyrid-2-yl]methoxy}ethylamino)acetamide]	–	–
22 nM	CCOC(=O)C1=C(COCCNCC(=O)NC)NC(C)=C(C(=O)OC)C1c1ccccc1Cl (stereo not drawn) [Example 20]	–	–
–	CCOC(=O)C1=C(COCCN)NC(C)=C(C(=O)OC)C1c1ccccc1Cl.O=C(O)/C=C\C(=O)O (stereo not drawn) [Example 22, 2-[(2-aminoethoxy)methyl]-4-(2-chlorophenyl)-3-ethoxycarbonyl-5-methoxycarbonyl-6-methyl-1,4-dihydropyridine maleate]	most active compounds	IC50 [3]: 3.2 nM
–	CCOC(=O)C1=C(COCCNC)NC(C)=C(C(=O)OC)C1c1ccccc1Cl.O=C(O)/C=C\C(=O)O (stereo not drawn) [Example 23, 4-(2-Chlorophenyl)-2-[2-(N-methylamino)ethoxymethyl]-3-ethoxycarbonyl-5-methoxycarbonyl-6-methyl-1,4-dihydropyridine maleate]	most active compounds	IC50 [4]: 3.2 nM
–	CCOC(=O)C1=C(COCCNC)NC(C)=C(C(=O)OC)C1c1ccccc1Cl.O=C(O)/C=C\C(=O)O (stereo not drawn) [Example 24, 4-(2-chlorophenyl)-2-[2-(N-methylamino)ethoxymethyl]-3-ethoxycarbonyl-5-methoxycarbonyl-6-methyl-1,4-dihydropyridine maleate]	most active compounds	IC50 [4]: 3.2 nM

Structure (SMILES)	IC50 [1]	activity ranking by IC50 (the smaller the concentration the more active the compound) [2]	further results
CCOC(=O)C1=C(COCCN)NC(C)=C(C(=O)OC)C1c1ccccc1Cl (stereo not drawn) [Example 9]	3.2 nM	most active compounds	–
